Experiments:
[1] = test system: SF-268; test: Induction of cell cycle arrest in p53 deficient human SF268 cells assessed as accumulation at subG1 phase at 10 uM after 24 hrs FACS analysis; assay type: functional
[2] = test system: SF-539; test: Induction of cell cycle arrest in human SF539 cells expressing p53 gene assessed as residual DNA synthesis at 10 uM after 24 hrs by FACS analysis; assay type: functional
[3] = test system: OVCAR-8; test: Induction of cell cycle arrest in p53 deficient human OVCAR8 cells assessed as accumulation at subG1 phase at 5 uM after 24hrs by FACS analysis; assay type: functional
[4] = test system: HeLa; test: Inhibition of DNA replication in human HeLa cells assessed as interorigin distance between homogenous DNA fibers at 2 uM after 2 hrs by immunofluorescence assay; assay type: functional
[5] = test system: HeLa; test: Induction of cell cycle arrest in p53 deficient human HeLa cells assessed as accumulation at subG1 phase at 10 uM after 24hrs by FACS analysis; assay type: functional
[6] = test system: HCT-15; test: Induction of cell cycle arrest in human HCT15 cells expressing p53 gene assessed as accumulation at subG1 phase at 10 uM after 24 hrs by FACS analysis; assay type: functional
[7] = test system: HeLa; test: Inhibition of DNA replication in human HeLa cells assessed as interorigin distance between homogenous DNA fibers at 5 uM after 6 hrs by immunofluorescence assay; assay type: functional
[8] = test system: HCT-15; test: Induction of cell cycle arrest in human HCT15 cells expressing p53 gene assessed as residual DNA synthesis at 10 uM after 24 hrs by FACS analysis; assay type: functional
[9] = test system: Jurkat; test: Induction of cell cycle arrest in p53 deficient human Jurkat cells assessed as residual DNA synthesis at 5 uM after 24 hrs by FACS analysis; assay type: functional
[10] = test system: SF-539; test: Induction of cell cycle arrest in human SF539 cells expressing p53 gene assessed as residual DNA synthesis at 5 uM after 24 hrs by FACS analysis; assay type: functional
[11] = test system: HeLa; test: Inhibition of DNA replication in human HeLa cells assessed as interorigin distance between homogenous DNA fibers at 20 uM after 4 hrs by immunofluorescence assay; assay type: functional
[12] = target: Mitogen-activated protein kinase 11 (Homo sapiens, UniProt Q15759); test: Inhibition of P38beta
Mitogen-activated protein kinase 11, sequence (Q15759 whole entry): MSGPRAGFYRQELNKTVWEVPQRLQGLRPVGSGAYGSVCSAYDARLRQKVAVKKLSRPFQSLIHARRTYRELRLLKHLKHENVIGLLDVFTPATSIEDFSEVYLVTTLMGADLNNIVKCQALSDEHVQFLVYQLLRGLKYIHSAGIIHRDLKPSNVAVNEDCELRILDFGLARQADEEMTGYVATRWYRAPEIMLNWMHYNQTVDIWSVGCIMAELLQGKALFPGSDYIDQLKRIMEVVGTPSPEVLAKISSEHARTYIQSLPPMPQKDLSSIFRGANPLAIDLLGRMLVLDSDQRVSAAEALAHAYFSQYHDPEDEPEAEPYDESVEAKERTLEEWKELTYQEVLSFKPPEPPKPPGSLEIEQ

[13] = test system: Jurkat; test: Induction of cell cycle arrest in p53 deficient human Jurkat cells assessed as accumulation at subG1 phase at 10 uM after 24hrs by FACS analysis; assay type: functional
[14] = test system: HCT-116; test: Induction of cell cycle arrest in human HCT116 cells expressing p53 gene assessed as accumulation at subG1 phase at 5 uM after 24hrs by FACS analysis; assay type: functional
[15] = Clearance in rat carrying DMBA-induced mammary carcinoma at 10 mg/kg, iv after 10 hrs; assay type: ADME, organism-based; design: dose 10 mg/kg, route intravenous; settings: in vivo
[16] = test system: MCF7; test: Induction of cell cycle arrest in human MCF7 cells expressing p53 gene assessed as residual DNA synthesis at 5 uM after 24 hrs by FACS analysis; assay type: functional
[17] = test system: U2OS; test: Induction of cell cycle arrest in human U2OS cells expressing p53 gene assessed as residual DNA synthesis at 10 uM after 24 hrs by FACS analysis; assay type: functional
[18] = target: Inhibitor of nuclear factor kappa-B kinase subunit beta (Homo sapiens, UniProt O14920); test: Inhibition of IKK2
Inhibitor of nuclear factor kappa-B kinase subunit beta, sequence (O14920 whole entry): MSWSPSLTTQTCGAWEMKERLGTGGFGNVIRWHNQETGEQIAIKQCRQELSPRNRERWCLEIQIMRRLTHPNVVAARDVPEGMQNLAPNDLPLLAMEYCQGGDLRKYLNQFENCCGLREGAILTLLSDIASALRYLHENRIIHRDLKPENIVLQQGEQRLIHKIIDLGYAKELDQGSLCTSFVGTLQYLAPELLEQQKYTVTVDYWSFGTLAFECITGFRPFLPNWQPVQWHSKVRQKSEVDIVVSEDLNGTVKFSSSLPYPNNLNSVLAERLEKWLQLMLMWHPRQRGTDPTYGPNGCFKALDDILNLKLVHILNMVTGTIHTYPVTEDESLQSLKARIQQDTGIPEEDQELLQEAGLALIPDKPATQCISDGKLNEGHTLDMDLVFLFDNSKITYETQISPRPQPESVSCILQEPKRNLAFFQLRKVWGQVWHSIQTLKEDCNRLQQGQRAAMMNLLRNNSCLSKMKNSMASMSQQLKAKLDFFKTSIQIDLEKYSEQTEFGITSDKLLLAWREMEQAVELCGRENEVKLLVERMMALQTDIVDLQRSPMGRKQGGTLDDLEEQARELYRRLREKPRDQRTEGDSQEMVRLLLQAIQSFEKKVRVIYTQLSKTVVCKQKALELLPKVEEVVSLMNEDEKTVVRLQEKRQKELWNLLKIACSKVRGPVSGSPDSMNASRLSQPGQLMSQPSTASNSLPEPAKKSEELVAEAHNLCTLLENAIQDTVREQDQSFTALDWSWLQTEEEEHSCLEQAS

[19] = test system: PC-3; test: Induction of cell cycle arrest in human PC3 cells expressing p53 gene assessed as residual DNA synthesis at 5 uM after 24 hrs by FACS analysis; assay type: functional
[20] = test system: PC-3; test: Induction of cell cycle arrest in human PC3 cells expressing p53 gene assessed as accumulation at subG1 phase at 5 uM after 24hrs by FACS analysis; assay type: functional
[21] = test system: PC-3; test: Antiproliferative activity against human PC3 cells expressing p53 gene after 72 hrs by proliferative assay; assay type: functional, cell-based; settings: PC-3, 72 h
[22] = target: Serine/threonine-protein kinase Nek6 (Homo sapiens, UniProt Q9HC98); test: Inhibition of Nek6
Serine/threonine-protein kinase Nek6, sequence (Q9HC98 whole entry): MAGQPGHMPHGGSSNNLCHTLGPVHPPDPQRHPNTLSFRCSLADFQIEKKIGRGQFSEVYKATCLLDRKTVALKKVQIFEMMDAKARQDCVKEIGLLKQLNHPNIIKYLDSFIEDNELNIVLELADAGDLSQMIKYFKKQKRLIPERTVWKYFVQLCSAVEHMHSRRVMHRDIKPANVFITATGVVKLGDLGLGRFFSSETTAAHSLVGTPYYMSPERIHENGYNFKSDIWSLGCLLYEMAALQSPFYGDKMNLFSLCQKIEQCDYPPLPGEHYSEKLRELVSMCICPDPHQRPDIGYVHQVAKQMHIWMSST

[23] = Induction of cell cycle arrest in p53 deficient human A2780/E6 cells assessed as residual DNA synthesis at 10 uM after 24 hrs by FACS analysis; assay type: functional
[24] = test system: HCT-15; test: Antiproliferative activity against human HCT15 cells expressing p53 gene after 72 hrs by proliferative assay; assay type: functional, cell-based; settings: HCT-15, 72 h
[25] = test system: NHDF; test: Prevention of nocodazole induced mitotic arrest in NHDF after 1 hr by FACS analysis; assay type: cell-based; settings: human
[26] = test system: SF-268; test: Induction of cell cycle arrest in p53 deficient human SF268 cells assessed as accumulation at subG1 phase at 5 uM after 24 hrs FACS analysis; assay type: functional
[27] = test system: HeLa; test: Inhibition of DNA replication in human HeLa cells assessed as increase in replication fork speed per min at 20 uM after 2 hrs by immunofluorescence assay; assay type: functional
[28] = test system: MCF7; test: Induction of cell cycle arrest in human MCF7 cells expressing p53 gene assessed as accumulation at subG1 phase at 5 uM after 24hrs by FACS analysis; assay type: functional
[29] = test system: HeLa; test: Inhibition of DNA replication in human HeLa cells assessed as increase in replication fork speed per min at 2 uM after 4 hrs by immunofluorescence assay; assay type: functional
[30] = test system: SW480; test: Induction of cell cycle arrest in p53 deficient human SW480 cells assessed as accumulation at subG1 phase at 10 uM after 24hrs by FACS analysis; assay type: functional
[31] = test system: MCF7; test: Induction of cell cycle arrest in human MCF7 cells expressing p53 gene assessed as residual DNA synthesis at 10 uM after 24 hrs by FACS analysis; assay type: functional
[32] = test system: HeLa; test: Inhibition of DNA replication in human HeLa cells assessed as increase in replication fork speed per min at 5 uM after 4 hrs by immunofluorescence assay; assay type: functional
[33] = test system: HeLa; test: Induction of cell cycle arrest in p53 deficient human HeLa cells assessed as assessed as accumulation at subG1 phase at 5 uM after 24hrs by FACS analysis; assay type: functional
[34] = test system: K562; test: Antiproliferative activity against p53 deficient human K562 cells after 72 hrs; assay type: functional, cell-based; settings: K562, 72 h
[35] = Inhibition of PDGFR
[36] = test system: HCT-116; test: Induction of cell cycle arrest in human HCT116 cells expressing p53 gene assessed as accumulation at subG1 phase at 10 uM after 24 hrs by FACS analysis; assay type: functional
[37] = test system: HeLa; test: Inhibition of DNA synthesis in human HeLa cells assessed as Brd-U uptake at 5 uM by FACS analysis; assay type: functional; design: scale not given: the % may be the effect or the level left
[38] = test system: HCT-116; test: Antiproliferative activity against human HCT116 cells expressing p53 gene after 72 hrs by proliferative assay; assay type: functional, cell-based; settings: HCT-116, 72 h
[39] = test system: OVCAR-8; test: Induction of cell cycle arrest in p53 deficient human OVCAR8 cells assessed as residual DNA synthesis at 10 uM after 24 hrs by FACS analysis; assay type: functional
[40] = test system: Mus musculus; test: AUC in SCID mouse carrying human HL60 cells at 20 mg/kg, iv after 10 hrs; assay type: ADME, organism-based, HL-60; design: time < 10 hr, dose 20 mg/kg, route intravenous; settings: in vivo
[41] = test system: HeLa; test: Inhibition of DNA replication in human HeLa cells assessed as interorigin distance between homogenous DNA fibers at 2 uM after 6 hrs by immunofluorescence assay; assay type: functional
[42] = test system: HCT-116; test: Induction of cell cycle arrest in human HCT116 cells expressing p53 gene assessed as residual DNA synthesis at 5 uM after 24 hrs by FACS analysis; assay type: functional

O=C1NCCc2[nH]c(-c3ccncc3)cc21
Activity [1]: 3% | Activity [2]: <3% | Activity [3]: 3% | Activity [4]: 225 kilobase | Activity [5]: 10% | Activity [6]: 3% | Activity [7]: 293 kilobase | Activity [8]: <3% | Activity [9]: <3% | Activity [10]: 3% | Activity [11]: 287 kilobase | IC50 [12]: > 10 µM | Activity [13]: >20% | Activity [14]: 3% | clearance [15]: 30 mL/min/kg | Activity [16]: <3% | Activity [17]: <3% | IC50 [18]: > 10 µM | Activity [19]: 3% | Activity [20]: 3% | IC50 [21]: 4.59 µM | IC50 [22]: > 10 µM | Activity [23]: <3% | IC50 [24]: 3.81 µM | Activity [25]: Not Active | Activity [26]: 3% | Activity [27]: 1.92 kilobase | Activity [28]: 3% | Activity [29]: 1.81 kilobase | Activity [30]: >20% | Activity [31]: <3% | Activity [32]: 2.02 kilobase | Activity [33]: 10% | IC50 [34]: 5.87 µM | IC50 [35]: > 10 µM | Activity [36]: 3% | Activity [37]: 37% | IC50 [38]: 970 nM | Activity [39]: <3% | AUC [40]: 47 µM·h | Activity [41]: 241 kilobase | Activity [42]: 3%

— ChEMBL document CHEMBL1221210, “A Cdc7 kinase inhibitor restricts initiation of DNA replication and has antitumor activity” (Nat Chem Biol, 2008)
